Earlier results on 62 compounds are cited in the CATMoS acute toxicity set (Mansouri et al. 2021).

The data set in a line: rat acute oral toxicity. The settings on record: in vivo.
Usually LD50 stands for the dose expected to kill half of the subjects tested. Turning to `C=C(Nc1ccc(NC(=O)COC)cc1)N(C)C`, the 50% lethal dose (LD50) is 4690 mg/kg.

With `CCCCC(CC)COCCC#N` (configuration not stated), the median lethal dose (LD50) was 4920 mg/kg.

Regarding `NNC(=O)CSc1cc(Oc2ccc(Cl)cc2)ncn1`, the LD50 was 800 mg/kg.

With `Oc1cccc2cc3cccc(O)c3c(O)c12`, the LD50 is 3220 mg/kg.

With `Cc1ccccc1C(=O)NC1=NCCS1`, the 50% lethal dose (LD50) is 912 mg/kg.

With `CCCCCOC(C[n+]1ccccc1)c1ccc(C2CCCCC2)cc1` (configuration not stated), the 50% lethal dose (LD50) was 250 mg/kg.

As for `Cc1nccnc1C`, the LD50 is 613 mg/kg.

In the case of `O=C(Cn1c(=O)sc2ccc(Cl)cc21)N1CCNCC1`, the 50% lethal dose (LD50) was 734 mg/kg.

For `C=CCc1ccc(OC)cc1`, the LD50 is 1230 mg/kg.

As to `ON=CC=NO`, the LD50 is 119 mg/kg.

`OCCC(O)Cl` (configuration not stated): the LD50 was 110 mg/kg.

On to `CCOP(=S)(OCC)Sc1ccc(C)cc1`, for which the median lethal dose (LD50) is 316 mg/kg.

In the case of `CCN(N=O)C(C)C`, the 50% lethal dose (LD50) was 1100 mg/kg.

Take `CN(c1ccc(Cl)cc1Cl)c1c([N+](=O)[O-])cc([N+](=O)[O-])cc1C(F)(F)F`: the 50% lethal dose (LD50) was 4.5 mg/kg.

As for `CCN(CC)CCOCCOC(=O)C(CC)(CC)c1ccccc1`, the 50% lethal dose (LD50) is 183 mg/kg.

As for `C=CCn1c(N)cc(=O)n(CC)c1=O`, the 50% lethal dose (LD50) was 2300 mg/kg.

Turning to `Cc1cc(C)c(C2=C(OC(=O)OC(C)C)c3ccccc3C2=O)c(C)c1`, the LD50 was 707 mg/kg.

Regarding `CCOCC(Cl)C(OCC)OCC` (configuration not stated), the LD50 is 1320 mg/kg.

For the compound `CNC(=O)ON=C1C2CCC(C2)C1(C)[N+](=O)[O-]` (configuration not stated), the 50% lethal dose (LD50) was 24 mg/kg.

As for `COP(=S)(OC)SCc1nc(=O)o[nH]1`, the median lethal dose (LD50) was 10 mg/kg.

Take `CCC(C)NCC(O)c1ccc(N)cc1` (configuration not stated): the LD50 is 650 mg/kg.

Regarding `COc1ccc2c(c1)c(CC(=O)OCOC(=O)c1ccccc1)c(C)n2C(=O)c1ccc(Cl)cc1`, the LD50 is 73 mg/kg.

Regarding `CC(N)=S`, the LD50 is 301 mg/kg.

Take `CN(C)N=Nc1cccc(C(N)=O)c1`: the median lethal dose (LD50) was 54 mg/kg.

Turning to `CN1CCN(C[C@H]2C(=O)Nc3ccccc3S[C@H]2c2ccccc2)CC1`, the LD50 is 830 mg/kg.

For `O=C1c2ccccc2C(=O)c2c1ccc1c2[nH]c2ccc3c4ccc5c6c(ccc(c(=O)c3c21)c46)c1ccc2c(=O)c3ccccc3c3nn5c1c23`, the LD50 was 11200 mg/kg.

In the case of `O=c1ncc2[nH]cnc2[nH]1`, the LD50 was 1040 mg/kg.

On to `CCCCc1c(C)nc(NCC)nc1O`, for which the LD50 is 4000 mg/kg.

For the compound `CCCC[P+](CCCC)(CCCC)Cc1ccc(Cl)cc1Cl`, the 50% lethal dose (LD50) was 178 mg/kg.

On to `COc1ccccc1C1CCN(CCCc2ccc3c(c2)CCC(=O)N3)CC1`, for which the LD50 was 500 mg/kg.

`O=C(OCCOC(=O)C(Cl)(Cl)Cl)C(Cl)(Cl)Cl`: the LD50 is 7000 mg/kg.

Regarding `CC(C(=O)O)c1ccc2c(c1)CC(C(C)C)C2` (configuration not stated), the LD50 was 1500 mg/kg.

On to `CC(C)(C)c1ccc2cc(C(C)(C)C)c(S(=O)(=O)O)cc2c1`, for which the LD50 is 4240 mg/kg.

In the case of `COCNC(=O)CSP(=S)(OC)OC`, the LD50 is 600 mg/kg.

Turning to `O=c1[nH]c2ccccc2n1CCCN1CCC(n2c(=O)[nH]c3cc(Cl)ccc32)CC1`, the LD50 is 5240 mg/kg.

With `N=C(N)NN=C1C=CC(=NNC(N)=S)C=C1`, the LD50 is 750 mg/kg.

In the case of `Nc1ccccc1C(=O)O`, the median lethal dose (LD50) was 5410 mg/kg.

On to `Nc1ccc(-c2ccc(N)c(Cl)c2)cc1Cl`, for which the 50% lethal dose (LD50) is 3820 mg/kg.

As for `CCCCCCCCCCCC[n+]1ccc2ccccc2c1`, the LD50 was 230 mg/kg.

As for `N/C(=N\c1c([N+](=O)[O-])cnc2ccccc12)N1CCOCC1`, the LD50 was 4000 mg/kg.

As to `N#CCNCC#N`, the LD50 is 710 mg/kg.

For the compound `CCOC(=O)c1noc(C)c1C(=O)c1ccccc1`, the 50% lethal dose (LD50) was 1000 mg/kg.

In the case of `CCCCOCCC#N`, the LD50 was 7460 mg/kg.

As to `Nc1ccc(OC(F)(F)C(F)F)c(N)c1`, the LD50 is 1070 mg/kg.

Consider `CCOC(=O)c1c(N)sc2c1CCN(Cc1ccccc1)C2`, for which the LD50 was 1200 mg/kg.

Regarding `N=C(N)SCc1ccc([N+](=O)[O-])cc1`, the LD50 is 300 mg/kg.

As for `CCCOP(=S)(OCCC)Oc1ccc(S(C)=O)cc1` (configuration not stated), the LD50 was 50 mg/kg.

Consider `CCCCCCc1ccc(C)cc1O`, for which the LD50 was 2300 mg/kg.

For the compound `COc1ccc2c(c1)OC(C)(C)C(c1ccccc1)=C2c1ccc(OCCN)cc1`, the median lethal dose (LD50) was 1500 mg/kg.

For `CCC(C)(O)Cc1ccccc1` (configuration not stated), the median lethal dose (LD50) is 4000 mg/kg.

For `C(=NC1CCCCC1)c1ccccc1`, the LD50 was 3080 mg/kg.

On to `NNC(=S)NN`, for which the median lethal dose (LD50) was 21.6 mg/kg.

With `O=[N+]([O-])c1cccc2[nH]c(C(F)(F)F)nc12`, the median lethal dose (LD50) is 10.6 mg/kg.

Regarding `CCc1ccc(C(=O)C(C)CN2CCCCC2)cc1` (configuration not stated), the LD50 was 1000 mg/kg.

In the case of `COP(=O)(SC)c1ccccc1` (configuration not stated), the 50% lethal dose (LD50) was 55.3 mg/kg.

For the compound `COC(=O)c1ccco1`, the LD50 is 300 mg/kg.

On to `O=C(OCC(COC(=O)c1ccccc1)(COC(=O)c1ccccc1)COC(=O)c1ccccc1)c1ccccc1`, for which the 50% lethal dose (LD50) was 1160 mg/kg.

Regarding `O=C(Cl)c1ccc(Cl)cc1Cl`, the median lethal dose (LD50) is 4640 mg/kg.

With `Oc1cc2nc(C(F)(F)F)[nH]c2cc1Cl`, the 50% lethal dose (LD50) is 55.5 mg/kg.

In the case of `CCCCCCOC(=O)CC(C(=O)OCCCCCC)S(=O)(=O)O` (configuration not stated), the median lethal dose (LD50) was 1750 mg/kg.

Regarding `CCOc1ccc(NC(=O)CC(C)O)cc1` (configuration not stated), the LD50 was 7000 mg/kg.

Consider `C=CCOC(Cn1ccnc1)c1ccc(Cl)cc1Cl` (configuration not stated), for which the LD50 is 227 mg/kg.
